According to ChEMBL document CHEMBL2380247, “Synthesis and biological evaluation of novel aliphatic amido-quaternary ammonium salts for anticancer chemotherapy: part II” (2013):

Legend:
Type in all cases: functional
[1] = system: PC-3; test: Antiproliferative activity against human PC3 cells by SRB assay
[2] = system: HCT-15; test: Antiproliferative activity against human HCT15 cells at 10 uM by SRB assay
[3] = system: NCI-H23; test: Antiproliferative activity against human NCI-H23 cells by SRB assay
[4] = system: HCT-15; test: Antiproliferative activity against human HCT15 cells at 0.1 uM by SRB assay
[5] = system: MDA-MB-231; test: Antiproliferative activity against human MDA-MB-231 cells by SRB assay
[6] = system: PC-3; test: Antiproliferative activity against human PC3 cells at 10 uM by SRB assay
[7] = system: NCI-H23; test: Antiproliferative activity against human NCI-H23 cells at 0.3 uM by SRB assay
[8] = system: NUGC-3; test: Antiproliferative activity against human NUGC3 cells at 3 uM by SRB assay
[9] = system: ACHN; test: Antiproliferative activity against human ACHN cells at 1 uM by SRB assay
[10] = system: NUGC-3; test: Antiproliferative activity against human NUGC3 cells at 0.3 uM by SRB assay
[11] = system: ACHN; test: Antiproliferative activity against human ACHN cells at 3 uM by SRB assay
[12] = system: NCI-H23; test: Antiproliferative activity against human NCI-H23 cells at 0.1 uM by SRB assay
[13] = system: NCI-H23; test: Antiproliferative activity against human NCI-H23 cells at 3 uM by SRB assay
[14] = system: HCT-15; test: Antiproliferative activity against human HCT15 cells at 3 uM by SRB assay
[15] = system: NUGC-3; test: Antiproliferative activity against human NUGC3 cells at 10 uM by SRB assay
[16] = system: PC-3; test: Antiproliferative activity against human PC3 cells at 0.3 uM by SRB assay
[17] = system: PC-3; test: Antiproliferative activity against human PC3 cells at 3 uM by SRB assay
[18] = system: HCT-15; test: Antiproliferative activity against human HCT15 cells at 1 uM by SRB assay
[19] = system: PC-3; test: Antiproliferative activity against human PC3 cells at 1 uM by SRB assay
[20] = system: NUGC-3; test: Antiproliferative activity against human NUGC3 cells at 0.1 uM by SRB assay
[21] = system: ACHN; test: Antiproliferative activity against human ACHN cells at 10 uM by SRB assay
[22] = system: NCI-H23; test: Antiproliferative activity against human NCI-H23 cells at 1 uM by SRB assay
[23] = system: HCT-15; test: Antiproliferative activity against human HCT15 cells at 0.3 uM by SRB assay
[24] = system: NUGC-3; test: Antiproliferative activity against human NUGC3 cells at 1 uM by SRB assay
[25] = system: NUGC-3; test: Antiproliferative activity against human NUGC3 cells by SRB assay
[26] = system: NCI-H23; test: Antiproliferative activity against human NCI-H23 cells at 10 uM by SRB assay
[27] = system: MDA-MB-231; test: Antiproliferative activity against human MDA-MB-231 cells at 3 uM by SRB assay
[28] = system: MDA-MB-231; test: Antiproliferative activity against human MDA-MB-231 cells at 10 uM by SRB assay
[29] = system: ACHN; test: Antiproliferative activity against human ACHN cells at 0.1 uM by SRB assay
[30] = system: PC-3; test: Antiproliferative activity against human PC3 cells at 0.1 uM by SRB assay
[31] = system: MDA-MB-231; test: Antiproliferative activity against human MDA-MB-231 cells at 0.3 uM by SRB assay
[32] = system: HCT-15; test: Antiproliferative activity against human HCT15 cells by SRB assay
[33] = system: ACHN; test: Antiproliferative activity against human ACHN cells by SRB assay
[34] = system: ACHN; test: Antiproliferative activity against human ACHN cells at 0.3 uM by SRB assay
[35] = system: MDA-MB-231; test: Antiproliferative activity against human MDA-MB-231 cells at 1 uM by SRB assay
[36] = system: MDA-MB-231; test: Antiproliferative activity against human MDA-MB-231 cells at 0.1 uM by SRB assay

Row | GI50 [1] [µM] | GI50 [3] [µM] | GI50 [5] [µM] | SMILES | growth, % of control at 10 µM [2] [%] | growth, % of control at 0.1 µM [4] [%] | growth, % of control at 10 µM [6] [%] | growth, % of control at 0.3 µM [7] [%] | growth, % of control at 3 µM [8] [%] | growth, % of control at 1 µM [9] [%] | growth, % of control at 0.3 µM [10] [%] | growth, % of control at 3 µM [11] [%] | growth, % of control at 0.1 µM [12] [%] | growth, % of control at 3 µM [13] [%] | growth, % of control at 3 µM [14] [%] | growth, % of control at 10 µM [15] [%] | growth, % of control at 0.3 µM [16] [%] | growth, % of control at 3 µM [17] [%] | growth, % of control at 1 µM [18] [%] | growth, % of control at 1 µM [19] [%] | growth, % of control at 0.1 µM [20] [%] | other results
1 | 0.31 | 1.22 | 1.13 | CCCCCCCCCCCCCCCC(=O)N(C)CC[N+](CC)(CC)Cc1ccccc1 | 71.1 | 100 | -13.9 | 112 | 1.3 | 52.3 | 84.8 | 28 | 113 | 39.7 | 92.8 | -9.3 | 80.4 | 1.4 | 99.4 | 25.8 | 92.7 | growth, % of control at 10 µM [21]: 1.6%; growth, % of control at 1 µM [22]: 75.4%; growth, % of control at 0.3 µM [23]: 101%; growth, % of control at 1 µM [24]: 31.4%; GI50 [25]: 0.36 µM; growth, % of control at 10 µM [26]: 6.5%; growth, % of control at 3 µM [27]: 33.2%; growth, % of control at 10 µM [28]: -4.4%; growth, % of control at 0.1 µM [29]: 83.4%; growth, % of control at 0.1 µM [30]: 86.6%; growth, % of control at 0.3 µM [31]: 96.5%; GI50 [32]: > 10 µM; GI50 [33]: 0.6 µM; growth, % of control at 0.3 µM [34]: 86.3%; growth, % of control at 1 µM [35]: 82.1%; growth, % of control at 0.1 µM [36]: 105%
2 | 0.85 | 1.11 | 1.35 | CCCCCCCCCCCCCCCC(=O)N(C)CCC[N+](C)(C)Cc1ccccc1 | 91 | 91.2 | 4.74 | 91.3 | -9.77 | 79.6 | 105 | 47.9 | 85.2 | 25 | 91.4 | -29.5 | 94.9 | 24.4 | 96.5 | 70.9 | 110 | growth, % of control at 10 µM [21]: -10.8%; growth, % of control at 1 µM [22]: 91.6%; growth, % of control at 0.3 µM [23]: 96.6%; growth, % of control at 1 µM [24]: 50.1%; GI50 [25]: 0.52 µM; growth, % of control at 10 µM [26]: -8.96%; growth, % of control at 3 µM [27]: 41%; growth, % of control at 10 µM [28]: 13.2%; growth, % of control at 0.1 µM [29]: 96.9%; growth, % of control at 0.1 µM [30]: 87.8%; growth, % of control at 0.3 µM [31]: 87.3%; GI50 [32]: > 10 µM; GI50 [33]: 1.3 µM; growth, % of control at 0.3 µM [34]: 90.9%; growth, % of control at 1 µM [35]: 87.3%; growth, % of control at 0.1 µM [36]: 85.3%
3 | 0.51 | 0.91 | 2.15 | CCCCCCCCCCCCCCCCCC(=O)NCC(C)(C)C[N+](C)(C)Cc1ccccc1 | 85.2 | 111 | -38.9 | 80.7 | 40.4 | 87.4 | 101 | 74.1 | 93.4 | 34.9 | 100 | -11 | 95.6 | -5.4 | 101 | 38.5 | 96.5 | growth, % of control at 10 µM [21]: 0.64%; growth, % of control at 1 µM [22]: 70.6%; growth, % of control at 0.3 µM [23]: 102%; growth, % of control at 1 µM [24]: 82%; GI50 [25]: 1.32 µM; growth, % of control at 10 µM [26]: -25.8%; growth, % of control at 3 µM [27]: 58.9%; growth, % of control at 10 µM [28]: 20.6%; growth, % of control at 0.1 µM [29]: 101%; growth, % of control at 0.1 µM [30]: 101%; growth, % of control at 0.3 µM [31]: 91.4%; GI50 [32]: > 10 µM; GI50 [33]: 2.23 µM; growth, % of control at 0.3 µM [34]: 94%; growth, % of control at 1 µM [35]: 86%; growth, % of control at 0.1 µM [36]: 95.5%
